“Also recorded” adds a separate entry of the source. Where two headings read alike, the source gives them in different places.
Assays:
[1] = LogD7.4 estimation by HPLC-based method; assay type: physicochemical; details: for logD7.4 (single determination): calculated from retention time with one calibration function (A–F)
Method: The logarithm of the capacity factors of the reference substances was then plotted against the corresponding logP values taken from the mentioned guideline to obtain a calibration function. For non‐ionizable compounds like the reference substances used for calibration, logP values can be considered equivalent to the logD 7.4 values. To obtain a reference mixture, 2 mg of the reference substances were each dissolved in 1 mL of methanol, and 50 μL aliquots of each reference solution were subsequently combined. The reference mixture was measured before and after the substances to be tested, and the mean retention time from both measurements was used to calculate the calibration function. The calibration function was then used to determine the logD 7.4 values from the corresponding retention times for each substance to be tested. The compounds of interest were injected as a solution in methanol (2 mg/mL), and the retention time was determined as the mean value from two measurements.

[2] = Cyclic voltammetry, anodic peak potential (oxidizability); assay type: physicochemical; details: 0.1 M Tris‐HCl buffer pH 7.4, −0.5 to 1.0 V, sweep rate 0.1 V/s, –[b] = no oxidation observed in the specified potential range
[3] = test system: HEP‐G2 human hepatoma cell line
KV7.2/3 channel = KV7.2/3 channel (Homo sapiens, UniProt O43525+O43526); test: KV7.2/3 channel opening activity, thallium-flux FLIPR Potassium Assay in HEK-293 cells overexpressing KV7.2/3; set-up: Emax: dose or concentration left out as unconfirmed; details: for KV7.2/3 opening activity (in words) / EC50 (required concentration to reach half‐maximal KV7.2/3 channel opening activity): HEK‐293 cells overexpressing KV7.2/3; for Emax: HEK293E, read-out: Efficacy; for EC50 (required concentration to reach half‐maximal KV7.2/3 channel opening activity): mean ± SD, at least three determinations; for EC50 (required concentration to reach half‐maximal KV7.2/3 channel opening activity) / Efficacy: –[e] = inactive up to a concentration of 20 μM; for Efficacy: maximal fluorescence signal relative to flupirtine (100 %), HEK‐293
Sequence of KV7.2/3 channel (O43525 whole entry): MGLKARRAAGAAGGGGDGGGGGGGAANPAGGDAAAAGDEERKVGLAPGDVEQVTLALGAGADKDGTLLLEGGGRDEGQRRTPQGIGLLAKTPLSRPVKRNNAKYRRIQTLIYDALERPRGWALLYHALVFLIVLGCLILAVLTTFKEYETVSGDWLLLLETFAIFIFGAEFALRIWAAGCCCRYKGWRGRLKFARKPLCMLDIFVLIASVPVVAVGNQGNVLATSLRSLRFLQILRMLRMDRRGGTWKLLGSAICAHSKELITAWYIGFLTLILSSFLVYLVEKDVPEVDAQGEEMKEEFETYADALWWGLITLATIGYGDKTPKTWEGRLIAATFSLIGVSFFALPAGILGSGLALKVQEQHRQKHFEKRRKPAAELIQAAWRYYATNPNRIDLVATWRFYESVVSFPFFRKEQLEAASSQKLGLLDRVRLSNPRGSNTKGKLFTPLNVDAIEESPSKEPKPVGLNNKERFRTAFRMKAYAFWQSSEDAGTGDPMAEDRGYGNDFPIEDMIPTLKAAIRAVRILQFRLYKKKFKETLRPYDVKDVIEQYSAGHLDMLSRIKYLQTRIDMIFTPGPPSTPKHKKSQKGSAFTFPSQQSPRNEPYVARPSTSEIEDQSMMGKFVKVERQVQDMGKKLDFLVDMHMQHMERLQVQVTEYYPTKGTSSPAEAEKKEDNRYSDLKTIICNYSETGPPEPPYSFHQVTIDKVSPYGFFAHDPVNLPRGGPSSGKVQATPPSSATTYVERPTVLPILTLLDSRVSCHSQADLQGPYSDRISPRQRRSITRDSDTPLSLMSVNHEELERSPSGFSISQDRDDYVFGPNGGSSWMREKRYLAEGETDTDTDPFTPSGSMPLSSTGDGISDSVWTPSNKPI
Sequence of KV7.2/3 channel (O43526 whole entry): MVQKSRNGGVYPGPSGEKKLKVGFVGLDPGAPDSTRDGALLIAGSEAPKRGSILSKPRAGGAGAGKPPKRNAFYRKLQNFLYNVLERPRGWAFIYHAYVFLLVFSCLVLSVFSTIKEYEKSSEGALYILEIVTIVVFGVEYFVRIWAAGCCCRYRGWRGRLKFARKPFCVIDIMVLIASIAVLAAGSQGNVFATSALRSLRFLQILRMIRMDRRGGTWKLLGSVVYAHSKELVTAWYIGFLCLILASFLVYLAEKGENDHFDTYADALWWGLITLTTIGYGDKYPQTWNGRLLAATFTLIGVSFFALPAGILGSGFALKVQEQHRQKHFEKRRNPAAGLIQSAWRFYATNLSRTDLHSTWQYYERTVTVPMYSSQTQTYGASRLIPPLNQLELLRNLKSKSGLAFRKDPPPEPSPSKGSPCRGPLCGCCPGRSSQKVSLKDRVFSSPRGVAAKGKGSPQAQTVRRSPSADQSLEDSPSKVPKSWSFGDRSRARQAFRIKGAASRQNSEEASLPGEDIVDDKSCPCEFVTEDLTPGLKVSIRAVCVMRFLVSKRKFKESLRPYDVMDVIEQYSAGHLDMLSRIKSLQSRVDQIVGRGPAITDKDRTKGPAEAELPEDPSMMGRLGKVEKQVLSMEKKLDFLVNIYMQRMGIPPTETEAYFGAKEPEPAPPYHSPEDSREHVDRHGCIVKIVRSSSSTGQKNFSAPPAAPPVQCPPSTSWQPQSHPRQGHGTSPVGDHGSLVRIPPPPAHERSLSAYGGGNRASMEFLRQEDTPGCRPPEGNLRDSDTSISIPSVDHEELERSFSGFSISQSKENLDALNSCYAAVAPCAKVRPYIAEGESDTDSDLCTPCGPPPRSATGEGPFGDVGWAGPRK

[4] = test system: TAMH mouse liver cell line
[5] = pH 7.4, calculated from retention time with one calibration function (A–F), Table S7, read-out: logD7.4 (single determination)
[6] = pH 7.4, estimated by HPLC-based method, pH 7.4, read-out: LogD 7.4
[7] = KV7.2/3 opening, ratio of EC50 values
[8] = HEP‐G2, MTT assay, 24 h exposure

| SMILES | logD7.4 (single determination) ([1]; Table S7) | chromatographic logD [1, 5] | chromatographic logD [1, 6] | Ep.a. (anodic peak potential) [2] | LD25 (concentration to reduce cell viability by 25 %) ([3]; human, 24 h) | LD50 (concentration to reduce cell viability by 50 %) ([3]; human, 24 h) | EC50 (KV7.2/3 channel) | KV7.2/3 opening activity (in words) (KV7.2/3 channel) | LD25 (concentration to reduce cell viability by 25 %) ([4]; mouse, 24 h) | LD50 (concentration to reduce cell viability by 50 %) ([4]; mouse, 24 h) | Emax (KV7.2/3 channel) | other results |
| --- | --- | --- | --- | --- | --- | --- | --- | --- | --- | --- | --- | --- |
| CCOC(=O)Nc1ccc(CCc2ccc(F)cc2)nc1N [compound 7, Ethyl [2‐amino‐6‐(4‐fluorophenethyl)pyridin‐3‐yl]carbamate] | 2.983 | 2.95 | 3 | 628 mV | 27 ± 16 µM | >63 µM | > 10000 nM | clearly less active than flupirtine | 25 ± 7 µM | >63 µM |  |  |
| CCCC(=O)Nc1ccc(CNc2ccc(F)cc2)cc1F [35 c, N ‐(2‐Fluoro‐4‐{[(4‐fluorophenyl)amino]methyl}phenyl)butyramide] | 2.980 | 2.96 | 3 | 643 mV | >63 µM | >63 µM | 1510 ± 364 nM |  | >63 µM | >63 µM | 167 ± 16% |  |
| CCCC(=O)Nc1ccc(CNc2ccc(C)cn2)cc1C [35 f, N ‐(2‐Methyl‐4‐{[(5‐methylpyridin‐2‐yl)amino]methyl}phenyl)butyramide] | 2.263 | 2.29 | 2.3 | 850 mV | >125 µM | >125 µM | 7860 ± 2170 nM | weakly active | >125 µM | >125 µM | 70 ± 9% |  |
| CCCC(=O)Nc1ncc(CNc2ccc(F)cc2)cc1Br [42 a, N ‐(3‐Bromo‐5‐{[(4‐fluorophenyl)amino]methyl}pyridin‐2‐yl)butyramide] | 2.714 | 2.71 | 2.7 | 668 mV | >63 µM | >63 µM | 5450 ± 1700 nM |  | >63 µM | >63 µM | 163 ± 23% |  |
| Cc1cc(CNc2ccc(F)cc2F)ccc1NC(=O)c1cccnc1 [35 e, N ‐(4‐{[(2,4‐Difluorophenyl)amino]methyl}‐2‐methylphenyl)nicotinamide] | 2.952 | 2.97 | 3 | no anodic peak potential could be determined; also recorded: –^[b] | 61 ± 7 µM | 107 ± 16 µM |  | inactive | 41 ± 11 µM | >125 µM |  | EC50 (required concentration to reach half‐maximal KV7.2/3 channel opening activity) (KV7.2/3 channel): –^[e]; Efficacy (KV7.2/3 channel): –^[e] |
| Cc1nc(CNc2ccc(F)cc2)ccc1NC(=O)OCC(C)C [compound 27, Isobutyl (6‐{[(4‐fluorophenyl)amino]methyl}‐2‐methylpyridin‐3‐yl)carbamate] | 3.408 | 3.42 | 3.4 | 648 mV | 136 ± 38 µM | >250 µM | 4120 ± 3940 nM |  | 76 ± 15 µM | >250 µM | 94 ± 15% |  |
| CCCC(=O)Nc1ncc(CNc2ccc(F)cc2)cc1C [43 a, N ‐(5‐{[(4‐Fluorophenyl)amino]methyl}‐3‐methylpyridin‐2‐yl)butyramide] | 2.341 | 2.33 | 2.3 | 678 mV | 46 ± 24 µM | >125 µM | 4840 ± 2910 nM |  | 110 ± 54 µM | >125 µM | 89 ± 32% |  |
| CCCC(=O)Nc1c(C)cc(CNc2ccc(F)cc2)cc1C [35 a, N ‐(4‐{[(4‐Fluorophenyl)amino]methyl}‐2,6‐dimethylphenyl)butyramide] | 3.023 | 3.04 | 3 | 633 mV |  | >125 µM | 143 ± 20 nM | submicromolar activity |  | >125 µM | 143 ± 7% | fold increase in potency compared to 35 b (KV7.2/3 channel; [7]): 4.7 fold |
| CCCC(=O)Nc1ccc(CNc2ccc(F)cc2)cc1C(F)(F)F.Cl [35 d, N ‐(4‐{[(4‐Fluorophenyl)amino]methyl}‐2‐(trifluoromethyl)phenyl)butyramide hydrochloride] | 2.991 | 3 | 3 | 663 mV | 75 ± 17 µM | >125 µM | 362 ± 93 nM |  | >125 µM | >125 µM | 156 ± 14% |  |
| Cc1cc(CNc2ccc(F)cc2)cnc1NC(=O)CC(C)(C)C [43 b, N ‐(5‐{[(4‐Fluorophenyl)amino]methyl}‐3‐methylpyridin‐2‐yl)‐3,3‐dimethylbutanamide] | 3.039 | 3.03 | 3 | 663 mV | 66 ± 27 µM | >125 µM | 677 ± 419 nM | submicromolar activity | >125 µM | >125 µM | 153 ± 12% | fold increase in potency compared to 43 a (KV7.2/3 channel; [7]): 7.2 fold |
| CCOC(=O)Nc1ccc(NCc2ccc(F)cc2)cc1N [Ret, retigabine] |  |  |  | 260 mV |  |  | 249 ± 52 nM |  |  |  | 119 ± 7% | LD25 (concentration to reduce cell viability by 25 %) [3, 8]: 269 ± 166 µM; LD50 (concentration to reduce cell viability by 50 %) [3, 8]: >400 µM; LD50 (concentration to reduce cell viability by 50 %) ([3]; HEP‐G2, MTT assay, 24 h exposure, listed as retigabine): above 400 μM; fold increase in potency compared to flupirtine (KV7.2/3 channel; [7]): 7 fold; LD25 (concentration to reduce cell viability by 25 %) ([4]; TAMH, MTT assay, 24 h exposure): >400 µM; LD50 (concentration to reduce cell viability by 50 %) ([4]; TAMH, MTT assay, 24 h exposure): >400 µM; LD50 (concentration to reduce cell viability by 50 %) ([4]; TAMH, MTT assay, 24 h exposure, listed as retigabine): above 400 μM |
| CCCC(=O)Nc1ncc(CNc2ccc(F)cc2)cc1C1CC1 [43 c, N ‐(3‐Cyclopropyl‐5‐{[(4‐fluorophenyl)amino]methyl}pyridin‐2‐yl)butyramide] | 2.772 | 2.77 | 2.8 | 678 mV | 55 ± 17 µM | >125 µM | 2020 ± 1200 nM |  | 76 ± 52 µM | >125 µM | 138 ± 20% | fold increase in potency compared to 43 a (KV7.2/3 channel; [7]): 2.4 fold; increase in efficiency compared to 43 a (KV7.2/3 channel; difference of efficacy values): 49% |
| CCOC(=O)Nc1ccc(C#Cc2ccccc2)nc1N [compound 21, Ethyl [2‐amino‐6‐(phenylethynyl)pyridin‐3‐yl]carbamate] | 2.983 | 2.99 | 3 | 553 mV | >125 µM | >125 µM | > 20000 nM |  | 63 ± 12 µM | >125 µM |  | EC50 (required concentration to reach half‐maximal KV7.2/3 channel opening activity) (KV7.2/3 channel): –^[e]; Efficacy (KV7.2/3 channel): –^[e] |
| CCCC(=O)Nc1ccc(CNc2ccc(F)cc2)cc1C [35 b, N ‐(4‐{[(4‐Fluorophenyl)amino]methyl}‐2‐methylphenyl)butyramide] | 2.870 | 2.88 | 2.9 | 618 mV | 88 ± 9 µM | >125 µM | 675 ± 276 nM |  | >125 µM | >125 µM | 176 ± 14% |  |

Source: PMC9541272, “Carba Analogues of Flupirtine and Retigabine with Improved Oxidation Resistance and Reduced Risk of Quinoid Metabolite Formation” (Chemmedchem, 2022)
